Measured values from patent US8637702B2, “Derivatives of N-hydroxybenzamide for treating HIV infections” (Italfarmaco S.p.A., priority 2009, dated 2014).

Tests used:
HDAC10 = target: T1, HDAC10 (Homo sapiens, UniProt Q969S8); assay: Inhibition of histone deacetylase isoforms, HDAC10
T1 sequence (Q969S8 1-669): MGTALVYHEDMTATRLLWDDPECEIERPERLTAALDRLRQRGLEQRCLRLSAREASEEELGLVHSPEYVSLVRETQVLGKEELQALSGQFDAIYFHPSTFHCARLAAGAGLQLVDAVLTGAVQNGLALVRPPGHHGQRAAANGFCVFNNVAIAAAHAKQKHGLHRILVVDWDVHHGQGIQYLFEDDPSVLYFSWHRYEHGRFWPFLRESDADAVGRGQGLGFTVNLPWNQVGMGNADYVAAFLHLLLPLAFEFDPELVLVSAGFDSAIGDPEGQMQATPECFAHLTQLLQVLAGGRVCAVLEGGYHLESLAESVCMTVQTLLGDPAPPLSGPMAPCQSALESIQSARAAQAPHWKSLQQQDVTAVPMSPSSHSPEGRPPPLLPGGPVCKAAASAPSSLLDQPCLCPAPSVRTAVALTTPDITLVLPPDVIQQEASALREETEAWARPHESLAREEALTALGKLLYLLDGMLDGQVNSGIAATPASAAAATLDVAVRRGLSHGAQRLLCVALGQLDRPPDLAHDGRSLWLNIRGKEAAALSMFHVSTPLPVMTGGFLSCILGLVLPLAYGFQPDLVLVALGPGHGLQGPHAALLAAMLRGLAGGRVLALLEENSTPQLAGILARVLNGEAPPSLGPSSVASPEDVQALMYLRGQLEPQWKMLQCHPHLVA
Method: (§1) Recombinant human enzymes were acquired from BPS Biosciences (CA, USA). Isoforms of Class I HDAC1, 2, 3; HDAC6, 10 of Class IIb and Class IV HDAC11 were tested using the Fluor-de-Lys fluorogenic synthetic substrate (Enzo Life Sciences, Plymouth Meeting, Pa.). […] Each inhibitor was dissolved in DMSO and then further diluted in an assay buffer. […] The assays were performed by pre-incubating each enzyme with the inhibitors for 15 minutes at 37° C. The reaction was started by adding the substrate at 37° C. and allowed to proceed for 60 minutes. The fluorescent signal was generated by adding 50 μL of a twice concentrated developer solution 2 (Enzo) containing trichostatin A 4 μM.

[1] = tested on: HIV-1 expression in ACH-2 cells; assay: Induction of the HIV-1 expression in the ACH-2 cell line (p24); assay type: cell-based; settings: 24 hours
Method: ACH2 cells were obtained through AIDS Research and Reference Reagent Program, Division of AIDS, National Institute of Allergy and Infectious Diseases, National Institutes of Health, Bethesda, Md. The cells were cultured in flasks, washed in RPMI and resuspended in RPMI/10% FCS at a concentration of 2×10^6 cells/mL. […] After 24 hours of incubation at 37° C./5% CO2, 50 μL of supernatant were removed for the cytotoxicity assay of the lactate dehydrogenase (LDH) and Triton-X-100 (0.5% vol/vol final concentration) were added to each culture. The p24 assays of the lysates were performed immediately.
p24 was measured using specific antibodies immobilized on magnetic beads as previously described [Nold M. F. et al. J. Immunol. […] The levels of p24 for each experiment without HDAC inhibitors were fixed at 1.0 and the increase values by the number of times for each experiment and each analogous were calculated.

HDAC11 = target: T2, HDAC11 (Homo sapiens, UniProt Q96DB2); assay: Inhibition of histone deacetylase isoforms, HDAC11
T2 sequence (Q96DB2 1-347): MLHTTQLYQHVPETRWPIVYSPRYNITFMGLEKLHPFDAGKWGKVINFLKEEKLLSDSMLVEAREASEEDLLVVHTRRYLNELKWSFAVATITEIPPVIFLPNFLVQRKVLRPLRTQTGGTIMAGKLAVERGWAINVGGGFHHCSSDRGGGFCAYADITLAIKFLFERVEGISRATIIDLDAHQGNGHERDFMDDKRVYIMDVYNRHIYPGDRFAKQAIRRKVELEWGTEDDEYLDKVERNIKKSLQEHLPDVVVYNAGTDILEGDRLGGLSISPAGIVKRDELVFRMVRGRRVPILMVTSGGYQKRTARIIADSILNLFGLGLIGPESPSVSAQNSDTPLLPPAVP
Method: as §1

HDAC2 = HDAC2 (Homo sapiens, UniProt Q92769); assay: Inhibition of histone deacetylase isoforms, HDAC2
Sequence of HDAC2 (Q92769 whole entry, canonical isoform): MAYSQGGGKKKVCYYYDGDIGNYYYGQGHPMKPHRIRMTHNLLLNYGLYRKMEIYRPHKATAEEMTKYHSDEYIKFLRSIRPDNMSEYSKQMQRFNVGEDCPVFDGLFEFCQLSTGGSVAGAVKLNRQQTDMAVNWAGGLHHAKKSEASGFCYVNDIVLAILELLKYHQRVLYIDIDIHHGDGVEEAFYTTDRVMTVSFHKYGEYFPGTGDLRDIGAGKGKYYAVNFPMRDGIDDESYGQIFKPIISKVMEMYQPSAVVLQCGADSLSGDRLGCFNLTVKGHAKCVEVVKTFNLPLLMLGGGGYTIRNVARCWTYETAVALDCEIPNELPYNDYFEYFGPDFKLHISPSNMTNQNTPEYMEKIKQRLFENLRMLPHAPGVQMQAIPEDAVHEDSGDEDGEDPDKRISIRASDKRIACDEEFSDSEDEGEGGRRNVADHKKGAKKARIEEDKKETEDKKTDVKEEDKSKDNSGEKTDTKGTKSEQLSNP
Method: Recombinant human enzymes were acquired from BPS Biosciences (CA, USA). Isoforms of Class I HDAC1, 2, 3; HDAC6, 10 of Class IIb and Class IV HDAC11 were tested using the Fluor-de-Lys fluorogenic synthetic substrate (Enzo Life Sciences, Plymouth Meeting, Pa.). […] The recombinant human HDAC8 assay was performed using HDAC8 Fluorimetric Drug Discovery Kit (Enzo) according to the manufacturer instructions. Each inhibitor was dissolved in DMSO and then further diluted in an assay buffer. […] The assays were performed by pre-incubating each enzyme with the inhibitors for 15 minutes at 37° C. The reaction was started by adding the substrate at 37° C. and allowed to proceed for 60 minutes. The fluorescent signal was generated by adding 50 μL of a twice concentrated developer solution 2 (Enzo) containing trichostatin A 4 μM.

SMILES | IC50 (HDAC10) [nM] | increase of the number of times in the level of p24 with respect to control ([1]; 31 nM) [times] | increase of the number of times in the level of p24 with respect to control ([1]; 63 nM) [times] | increase of the number of times in the level of p24 with respect to control ([1]; 125 nM) [times] | increase of the number of times in the level of p24 with respect to control ([1]; 250 nM) [times] | increase of the number of times in the level of p24 with respect to control ([1]; 250 nM, listed as compound g) [times] | IC50 (HDAC11) [nM] | IC50 (HDAC2) [nM] | increase of the number of times in the level of p24 with respect to control ([1]; 250 nM, listed as compound t) [times]
O=C(NO)c1ccc(NC(=O)[C@H](Cc2ccc3ccccc3c2)NC(=O)c2ccccc2)cc1 [Compound g, 4-(2(S)-benzoylamino-3-naphtalen-2-yl-propionylamino)-N-hydroxy-benzamide] | 132 | 2 | 3 | 10 | 27 | 30 | 441 | 12 | –
O=C(NO)c1ccc(NC(=O)[C@H](Cc2ccc3ccccc3c2)NC(=O)c2ccc3c(c2)OCO3)cc1 [Compound t, benzo[1,3]dioxole-5-carboxylic acid [1(S)-(4-hydroxycarbamoyl-phenylcarbamoyl)-2-naphtalen-2-yl-ethy]-amide] | 276 | 1 | 2 | 10 | 33 | – | 336 | 29.5 | 30
